The supplement of paper PMC11061612

Legend:
[1] = compound: CCc1c2c(nc3ccc(O)cc13)-c1cc3c(c(=O)n1C2)COC(=O)[C@]3(O)CC [SN-38]; conditions: max 0.3 µM
Outline: (§1)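 In 1536-well plates, cancer cell lines in 7.5 μl DMEM/F12 or RPMI with 10% FBS spent 24 hours at 37°C and 5% CO2 and were then dosed for 72 hours with final DMSO typically 0.2%. Viability was read by CellTiter-Glo 2.0 luminescence and scaled between blank-well and DMSO-well means. The single-agent IC50 was fitted from dose responses using a logistic curve in a non-linear mixed effects model, and that logistic curve had two parameters.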

[2] = compound: C[C@@H](Nc1cc(F)cc(F)c1)c1cc(C(=O)N(C)C)cc2c(=O)cc(N3CCOCC3)oc12 [AZD8186]; conditions: max 10 µM
Outline: as §1

[3] = compound: COc1cc(Nc2ncc3c(n2)-c2ccc(Cl)cc2C(c2c(F)cccc2OC)=NC3)ccc1C(=O)O [Alisertib]; conditions: max 10 µM
Outline: as §1

[4] = compound: C[C@@H](Oc1cc(-c2cnn(C3CCNCC3)c2)cnc1N)c1c(Cl)ccc(F)c1Cl [Crizotinib]; conditions: max 10 µM
Outline: as §1

[5] = compound: C=CCn1c(=O)c2cnc(Nc3ccc(N4CCN(C)CC4)cc3)nc2n1-c1cccc(C(C)(C)O)n1 [AZD1775]; conditions: max 3 µM
Outline: as §1

[6] = compound: CC(C)n1c(=O)n(C)c2cnc3cc(F)c(-c4ccc(OCCCN5CCCCC5)nc4)cc3c21 [AZD1390]; conditions: max 0.3 µM
Outline: as §1

[7] = compound: CN(C)CCCOc1ccc(-c2ccc3ncc4c(c3c2)n(C2CCOCC2)c(=O)n4C)cn1 [AZD0156]; conditions: max 3 µM
Outline: as §1

[8] = compound: Cc1nc(-c2cn3c(n2)-c2ccc(-c4cnn(C(C)(C)C(N)=O)c4)cc2OCC3)n(C(C)C)n1 [Taselisib]; conditions: max 10 µM
Outline: as §1

[9] = compound: COc1cc([C@@H]2c3cc4c(cc3[C@@H](O[C@@H]3O[C@@H]5CO[C@@H](C)O[C@H]5[C@H](O)[C@H]3O)[C@H]3COC(=O)[C@H]23)OCO4)cc(OC)c1O [Etoposide]; conditions: max 10 µM
Outline: as §1

[10] = compound: COc1cc2ncnc(Nc3ccc(F)c(Cl)c3)c2cc1OCCCN1CCOCC1 [Gefitinib]; conditions: max 10 µM
Outline: as §1

[11] = compound: C1CN(CCC1(C(=O)N[C@@H](CCO)C2=CC=C(C=C2)Cl)N)C3=NC=NC4=C3C=CN4 [AZD5363]; conditions: max 10 µM
Outline: as §1

[12] = compound: COc1nnc2ccc(N3CCC(c4ccc(OCCN5CCN(C)C(=O)[C@H]5C)cc4)CC3)nn12 [AZD5153]; conditions: max 1 µM
Outline: as §1

[13] = compound: CC(=O)O[C@H]1C(=O)[C@@]2(C)[C@H]([C@H](OC(=O)c3ccccc3)[C@]3(O)C[C@H](OC(=O)[C@H](O)[C@@H](NC(=O)c4ccccc4)c4ccccc4)C(C)=C1C3(C)C)[C@]1(OC(C)=O)CO[C@@H]1C[C@@H]2O [Paclitaxel]; conditions: max 3 µM
Outline: as §1

[14] = compound: CC1=CN2[C@@H](C1)C=NC3=CC(=C(C=C3C2=O)OC)OCCCCCOC4=C(C=C5C(=C4)N=C[C@@H]6CC(=CN6C5=O)C)OC [SG3199]; conditions: max 0.001 µM
Outline: as §1

[15] = compound: O=C(c1cc(Cc2n[nH]c(=O)c3ccccc23)ccc1F)N1CCN(C(=O)C2CC2)CC1 [Olaparib]; conditions: max 10 µM
Outline: as §1

[16] = compound: Cc1c2c(nn1C)CSCc1cc(n(C)n1)CSc1cc(c3ccccc3c1)OCCCc1c(C(=O)O)n(C)c3c-2c(Cl)ccc13 [AZD5991]; conditions: max 1 µM
Outline: as §1

[17] = compound: CS(=O)(=O)CCNCc1ccc(-c2ccc3ncnc(Nc4ccc(OCc5cccc(F)c5)c(Cl)c4)c3c2)o1 [Lapatinib]; conditions: max 10 µM
Outline: as §1

[18] = compound: CN(CC[C@H](CSC1=CC=CC=C1)NC2=C(C=C(C=C2)S(=O)(=O)NC(=O)C3=CC=C(C=C3)N4CCC(CC4)[C@H](C5=CC=CC=C5C6=CC=C(C=C6)Cl)O)S(=O)(=O)C(F)(F)F)CCO [AZD4320]; conditions: max 1 µM
Outline: as §1

[19] = compound: N#Cc1cnc(Nc2cc(NC[C@H]3CNCCO3)c(C(F)(F)F)cn2)cn1 [SRA737]; conditions: max 10 µM
Outline: as §1

[20] = compound: CC1=C(C(=CC=C1)Cl)NC(=O)C2=CN=C(S2)NC3=CC(=NC(=N3)C)N4CCN(CC4)CCO [Dasatinib]; conditions: max 2 µM
Outline: as §1

[21] = compound: Nc1ccn([C@@H]2O[C@H](CO)[C@@H](O)C2(F)F)c(=O)n1 [Gemcitabine]; conditions: max 0.3 µM
Outline: as §1

[22] = compound: Cn1cnc2c(F)c(Nc3ccc(Br)cc3Cl)c(C(=O)NOCCO)cc21 [Selumetinib]; conditions: max 10 µM
Outline: as §1

[23] = compound: COc1cccc2c1C(=O)c1c(O)c3c(c(O)c1C2=O)C[C@@](O)(C(=O)CO)C[C@@H]3O[C@H]1C[C@H](N)[C@H](O)[C@H](C)O1 [Doxorubicin]; conditions: max 1 µM
Outline: as §1

[24] = compound: CC(=O)c1c(C)c2cnc(Nc3ccc(N4CCNCC4)cn3)nc2n(C2CCCC2)c1=O [Palbociclib]; conditions: max 10 µM
Outline: as §1

[25] = compound: COc1cccc(OCCCN)c1-c1cc(Nc2cnc(C#N)cn2)n[nH]1 [Prexasertib]; conditions: max 1 µM
Outline: as §1

[26] = compound: O=c1[nH]cc(F)c(=O)[nH]1 [5-Fluorouracil]; conditions: max 20 µM
Outline: as §1

[27] = compound: CC1(C)CCC(CN2CCN(c3ccc(C(=O)NS(=O)(=O)c4ccc(NCC5CCOCC5)c([N+](=O)[O-])c4)c(Oc4cnc5[nH]ccc5c4)c3)CC2)=C(c2ccc(Cl)cc2)C1 [Venetoclax]; conditions: max 1 µM
Outline: as §1

[28] = compound: NC1(c2ccc(-c3nc4ccn5c(=O)[nH]nc5c4cc3-c3ccccc3)cc2)CCC1 [MK-2206]; conditions: max 10 µM
Outline: as §1

[29] = compound: O=C(Nc1ccc2[nH]nc(-c3ccncc3)c2c1)[C@@H]1CCN(CC(=O)N2CCN(c3ccc(-c4ncccn4)cc3)CC2)C1; conditions: max 5 µM
Outline: as §1

[30] = compound: CCN(CCO)CCCOc1ccc2c(Nc3cc(CC(=O)Nc4cccc(F)c4)[nH]n3)ncnc2c1 [AZD2811]; conditions: max 1 µM
Outline: as §1

[31] = compound: C[C@@H](c1ccc2nccn2c1)n1nnc2ncc(-c3cnn(C)c3)nc21 [Savolitinib]; conditions: max 1 µM
Outline: as §1

[32] = compound: C[C@@H]1COCCN1C2=NC(=NC(=C2)C3(CC3)[S@](=N)(=O)C)C4=C5C=CNC5=NC=C4 [AZD6738]; conditions: max 10 µM
Outline: as §1

[33] = compound: CC(=O)Nc1cccc(-n2c(=O)n(C3CC3)c(=O)c3c(Nc4ccc(I)cc4F)n(C)c(=O)c(C)c32)c1 [Trametinib]; conditions: max 1 µM
Outline: as §1

[34] = compound: C1CC(C1)(C(=O)[O-])C(=O)[O-].N.N.[Pt+2] [Carboplatin]; conditions: max 10 µM
Outline: as §1

[35] = compound: Cc1cc2ncnn2cc1Nc1ncc2c(n1)n(C1CCOCC1)c(=O)n2C [AZD7648]; conditions: max 10 µM
Outline: as §1

Cell Line | IC50, cell viability 72 h [1] [nM] | IC50, cell viability 72 h [2] [µM] | IC50, cell viability 72 h [3] [µM] | IC50, cell viability 72 h [4] [µM] | IC50, cell viability 72 h [5] [nM] | IC50, cell viability 72 h [6] [nM] | IC50, cell viability 72 h [7] [nM] | IC50, cell viability 72 h [8] [µM] | IC50, cell viability 72 h [9] [µM] | IC50, cell viability 72 h [10] [µM] | IC50, cell viability 72 h [11] [µM] | IC50, cell viability 72 h [12] [nM] | IC50, cell viability 72 h [13] [nM] | IC50, cell viability 72 h [14] [nM] | IC50, cell viability 72 h [15] [µM] | IC50, cell viability 72 h [16] [nM] | IC50, cell viability 72 h [17] [µM] | IC50, cell viability 72 h [18] [nM] | IC50, cell viability 72 h [19] [µM] | IC50, cell viability 72 h [20] [nM] | IC50, cell viability 72 h [21] [nM] | IC50, cell viability 72 h [22] [µM] | IC50, cell viability 72 h [23] [nM] | IC50, cell viability 72 h [24] [µM] | IC50, cell viability 72 h [25] [nM] | IC50, cell viability 72 h [26] [µM] | IC50, cell viability 72 h [27] [nM] | IC50, cell viability 72 h [28] [µM] | IC50, cell viability 72 h [29] [µM] | IC50, cell viability 72 h [30] [nM] | IC50, cell viability 72 h [31] [nM] | IC50, cell viability 72 h [32] [µM] | IC50, cell viability 72 h [33] [nM] | IC50, cell viability 72 h [34] [µM] | IC50, cell viability 72 h [35] [µM]
PEO1 (Ovarian Carcinoma) | 57.3 | > 10 | > 10 | > 10 | 1540 | > 300 | > 3000 | 8.19 | > 10 | > 10 | > 10 | > 1000 | 52.9 | > 1 | > 10 | > 1000 | > 10 | > 1000 | > 10 | > 2000 | > 300 | > 10 | > 1000 | > 10 | > 1000 | > 20 | > 1000 | > 10 | > 5 | > 1000 | > 1000 | > 10 | > 1000 | > 10 | > 10
SK-HEP-1 (Hepatocellular Carcinoma) | 83.5 | > 10 | > 10 | > 10 | > 3000 | > 300 | > 3000 | > 10 | 7.4 | > 10 | > 10 | > 1000 | 45.4 | > 1 | > 10 | > 1000 | > 10 | > 1000 | > 10 | > 2000 | > 300 | > 10 | 698 | 9.05 | > 1000 | > 20 | > 1000 | 6.2 | > 5 | > 1000 | > 1000 | > 10 | > 1000 | > 10 | > 10
SW620 (Colorectal Carcinoma) | 32.2 | > 10 | > 10 | > 10 | 1140 | > 300 | > 3000 | > 10 | 3.42 | > 10 | > 10 | > 1000 | 116 | > 1 | > 10 | > 1000 | > 10 | > 1000 | > 10 | > 2000 | 97.6 | 0.911 | 640 | > 10 | 306 | > 20 | > 1000 | > 10 | 0.928 | > 1000 | > 1000 | > 10 | 39.6 | > 10 | > 10
WM1552C (Melanoma) | 152 | > 10 | 7.48 | 6.26 | 1760 | > 300 | > 3000 | 8.74 | > 10 | > 10 | > 10 | > 1000 | 51.5 | > 1 | > 10 | 759 | > 10 | > 1000 | 6.18 | 1810 | 52.2 | 7.99 | > 1000 | > 10 | 34.4 | > 20 | > 1000 | > 10 | > 5 | > 1000 | > 1000 | > 10 | 158 | > 10 | > 10
